Measurements: ChEMBL document CHEMBL1148828, “Deoxycholic acid-derived tetraoxane antimalarials and antiproliferatives(1)” (J Med Chem, 2007)
pIC50: −log10 of the molar value.

How the values were obtained:
NCI = assay: Growth inhibition of human NCI DTP 60 cells; type: functional; conditions: Homo sapiens, NCI
IGROV-1 = assay: Antiproliferative activity against human IGROV1 cells after 48 hrs; type: functional; conditions: IGROV-1, 48 h
CAKI-1 = assay: Antiproliferative activity against human CAKI1 cells after 48 hrs; type: functional; conditions: CAKI-1, 48 h; for CC50: read-out: LC50 (the source's name)
NCI-H522 = assay: Antiproliferative activity against human NCI-H522 cells after 48 hrs; type: functional; conditions: NCI-H522, 48 h
786-0 = assay: Antiproliferative activity against human 786-0 cells after 48 hrs; type: functional; conditions: Homo sapiens, 786-0, 48 h; for CC50: read-out: LC50 (the source's name)
UO-31 = assay: Antiproliferative activity against human UO31 cells after 48 hrs; type: functional; conditions: Homo sapiens, UO-31, 48 h
NCI-H460 = assay: Antiproliferative activity against human NCI-H460 cells after 48 hrs; type: functional; conditions: NCI-H460, 48 h; for CC50: read-out: LC50 (the source's name)
Plasmodium falciparum [1] = assay: Antimalarial activity against Plasmodium falciparum W2; type: functional, organism-based
Plasmodium falciparum [2] = assay: Antimalarial activity against Plasmodium falciparum D6; type: functional, organism-based
[3] = Antiproliferative activity against human […] cells after 48 hrs; type: functional
MOLT-4 = assay: Antiproliferative activity against human MOLT4 cells after 48 hrs; type: functional; conditions: MOLT-4, 48 h
Plasmodium falciparum [4] = assay: Antimalarial activity against Plasmodium falciparum TM91C235; type: functional, organism-based
SF-295 = assay: Antiproliferative activity against human SF295 cells after 48 hrs; type: functional; conditions: SF-295, 48 h
SF-539 = assay: Antiproliferative activity against human SF539 cells after 48 hrs; type: functional; conditions: SF-539, 48 h
HL-60 = assay: Antiproliferative activity against human HL60 cells after 48 hrs; type: functional; conditions: Homo sapiens, HL-60, 48 h
MDA-MB-435 = assay: Antiproliferative activity against human MDA-MB-435 cells after 48 hrs; type: functional; conditions: Homo sapiens, MDA-MB-435, 48 h
A498 = assay: Antiproliferative activity against human A498 cells after 48 hrs; type: functional; conditions: A498, 48 h
NCI-H23 = assay: Antiproliferative activity against human NCI-H23 cells after 48 hrs; type: functional; conditions: NCI-H23, 48 h
MDA-MB-231 = assay: Antiproliferative activity against human MDA-MB-231 cells after 48 hrs; type: functional; conditions: MDA-MB-231, 48 h
LOX IMVI = assay: Antiproliferative activity against human LOX IMVI cells after 48 hrs; type: functional; conditions: Homo sapiens, LOX IMVI, 48 h
SN12C = assay: Antiproliferative activity against human SN12C cells after 48 hrs; type: functional
DU-145 = assay: Antiproliferative activity against human DU145 cells after 48 hrs; type: functional; conditions: DU-145, 48 h
HOP-92 = assay: Antiproliferative activity against human HOP92 cells after 48 hrs; type: functional; conditions: Homo sapiens, HOP-92, 48 h
[5] = read-out: LC50 (the source's name)
[6] = Plasmodium falciparum, TM91C235

## CC(=O)O[C@H]1C[C@H]2[C@@H]([C@H](OC(C)=O)C[C@@H]3CC4(CC[C@@]32C)OOC2(CCCCC2)OO4)[C@@H]2CC[C@H]([C@H](C)CCC(N)=O)[C@@]12C
NCI
  GI50: < 0.01 µM
IGROV-1
  GI50: 0.032 µM
  LC50 (concentration killing 50% of cells): 0.43 µM
  TGI: 0.12 µM
CAKI-1
  GI50: 0.2 µM
  TGI: 1.12 µM
  CC50: 3.59 µM
NCI-H522
  GI50: 0.23 µM
  TGI: 0.77 µM
NCI-H522; [5]
  CC50: 3.02 µM
786-0
  GI50: 0.783 µM
  TGI: 2.09 µM
  CC50: 4.57 µM
UO-31
  GI50: < 0.01 µM
  LC50: 0.04 µM
  TGI: 0.014 µM
NCI-H460
  GI50: 0.55 µM
  TGI: 2.07 µM
  CC50: 5.28 µM

## CCCNC(=O)CC[C@@H](C)[C@H]1CC[C@H]2[C@@H]3CC[C@@H]4CC5(CC[C@]4(C)[C@H]3C[C@H](OC(C)=O)[C@]12C)OOC1(CCCCC1)OO5
Plasmodium falciparum [1]; Plasmodium falciparum, W2
  pIC50: 7.39
  IC90: 0.111 µM
NCI
  GI50: 0.11 µM
Plasmodium falciparum [2]; Plasmodium falciparum, D6
  pIC50: 7.13
  IC90: 0.115 µM
[3]
  GI50: 0.11 µM
  TGI: 0.65 µM
[3]; [5]
  CC50: 6.82 µM

## CC(=O)O[C@H]1C[C@H]2[C@@H](CC[C@@H]3CC4(CC[C@@]32C)OOC2(CCCCC2)OO4)[C@@H]2CC[C@H]([C@H](C)CCC(=O)NCCN(C)C)[C@@]12C
Plasmodium falciparum [1]; Plasmodium falciparum, W2
  pIC50: 6.98
  IC90: 0.276 µM
NCI
  GI50: < 0.01 µM
Plasmodium falciparum [2]; Plasmodium falciparum, D6
  pIC50: 6.66
MOLT-4
  GI50: < 0.01 µM
  TGI: > 100 µM
786-0
  GI50: 0.159 µM
  TGI: 0.298 µM
  CC50: 0.559 µM
Plasmodium falciparum [4]; [6]
  pIC50: 6.66
NCI-H460
  GI50: 0.536 µM
  TGI: 1.9 µM
  CC50: 4.7 µM

## CC(=O)O[C@H]1C[C@H]2[C@@H](CC[C@@H]3CC4(CC[C@@]32C)OOC2(CCC(C)CC2)OO4)[C@@H]2CC[C@H]([C@H](C)CCC(N)=O)[C@@]12C (stereo in doubt; 12)
Plasmodium falciparum [1]
  IC90: 0.0297 µM
Plasmodium falciparum [1]; Plasmodium falciparum, W2
  pIC50: 7.73
NCI
  GI50: 0.11 µM
SF-295
  GI50: 0.524 µM
  TGI: 1.69 µM
SF-295; [5]
  CC50: 3.46 µM
SF-539
  TGI: 1.84 µM
SF-539; [5]
  CC50: 3.61 µM
Plasmodium falciparum [2]; Plasmodium falciparum, D6
  pIC50: 7.87
  IC90: 0.019 µM
HL-60
  GI50: 0.769 µM
  TGI: 1.84 µM
HL-60; [5]
  CC50: 4.41 µM
MDA-MB-435
  GI50: 0.951 µM
  TGI: 1.94 µM
MDA-MB-435; [5]
  CC50: 3.96 µM
A498
  GI50: 0.923 µM
  TGI: 1.92 µM
A498; [5]
  CC50: 4 µM
NCI-H23
  GI50: 0.66 µM
  LC50 (concentration killing 50% of cells): 3.39 µM
  TGI: 1.71 µM
MDA-MB-231
  GI50: 0.821 µM
  TGI: 1.76 µM
MDA-MB-231; [5]
  CC50: 3.77 µM
LOX IMVI
  GI50: 0.111 µM
  TGI: 0.259 µM
SN12C
  GI50: 0.833 µM
  LC50 (concentration killing 50% of cells): 3 µM
  TGI: 1.58 µM
Plasmodium falciparum [4]; [6]
  pIC50: 7.80
  IC90: 0.0308 µM
DU-145
  GI50: 0.699 µM
  LC50 (concentration killing 50% of cells): 3.34 µM
  TGI: 1.73 µM

## CCCNC(=O)CC[C@@H](C)[C@H]1CC[C@H]2[C@@H]3CC[C@@H]4CC5(CC[C@]4(C)[C@H]3C[C@H](OC(C)=O)[C@]12C)OOC1(CCC(C)CC1)OO5 (stereo in doubt; 15)
Plasmodium falciparum [1]
  pIC50: 7.47
  IC90: 0.0537 µM
NCI
  GI50: 0.062 µM
HOP-92
  GI50: 0.134 µM
  LC50 (concentration killing 50% of cells): 4.53 µM
  TGI: 0.873 µM
Plasmodium falciparum [2]
  pIC50: 7.53
  IC90: 0.0393 µM
CAKI-1
  GI50: 0.0622 µM
  TGI: 0.163 µM
  CC50: 0.429 µM
LOX IMVI
  GI50: 0.116 µM
  LC50 (concentration killing 50% of cells): 1.68 µM
  TGI: 0.391 µM
UO-31
  GI50: 0.122 µM
  TGI: 0.329 µM
Plasmodium falciparum [4]
  pIC50: 7.47
  IC90: 0.0507 µM
DU-145
  GI50: 0.663 µM
  LC50 (concentration killing 50% of cells): 3.91 µM
  TGI: 1.61 µM
